Laboratory results as given in patent US20110143946A1, “Method for predicting the response of a tumor in a patient suffering from or at risk of developing recurrent gynecologic cancer towards a chemotherapeutic agent” (SIEMENS HEALTHCARE DIAGNOSTICS INC., priority 2007, published 2011).

Key:
primary tumors = assay: in vitro chemosensitivity assay of primary tumors (ATP-measurement, AUC of dose-response curve); type: cell-based; details: 6 days of incubation; for response (chemosensitivity) of tumors of the basal subtype: basal molecular subtype (MLPH<2000); for response (chemosensitivity) of tumors of the luminal A subtype: luminal A molecular subtype (ESR1 >6000, PGR >160)
Description: In a second step for the identification of an optimal predictive gene signature in vitro chemosensitivity assays of primary tumors are performed to determine the response of a tumor towards a single chemotherapeutic agent. In said in vitro chemosensitivity assays the primary tumors were cultivated in different assays with increasing concentrations of the agents. After 6 days of incubation the vitality of the tumor cells were determined with an ATP-measurement. Hereby, the growing inhibition for the different agent concentrations could be determined and a dose-response curve could be provided. For each tumor the Area under the dose-response curve (AUC) could be determined for the different agents. The AUC is used to evaluate the response of a tumor towards a chemotherapeutic agent. The bigger the AUC, the more sensitive is the tumor towards the agent. The tumor samples were classified according to their sensitivity towards the agents into three classes (resistant, intermediate, sensitive) via the tertiles of the AUC arrangement.

NCI 60 cell lines = assay: NCI 60 cell line chemosensitivity (GI-50); type: cell-based; details: AKR1C1 cut-off score 5000
Description: In this study several tumor cell lines of different cancer types were tested for their sensitivity towards several chemotherapeutic agents. The GI-50 value (concentration, where half of the tumor cells are inhibited regarding growing) for Paclitaxel was used to test, whether AKR1C1 is appropriate for a prediction of a Paclitaxel sensitivity in cell lines. […] The defined cut-off score (5000) allowed a significant classification (p=0.0049) of the resistant and sensitive tumor cells of the NCI 60 cell lines (FIG. 14).
NCI 60 cell lines were classified with the marker gene AKR1C1 (cut-off score 5000). Onto the ordinate the concentration of Palitaxel is depicted, which is needed for the inhibition of half of the cells (GI-50). Altogether for Paclitaxel 54 GI-50 values for the cell lines were provided.

Row | SMILES | response (chemosensitivity) of tumors of the basal subtype (primary tumors) | response (chemosensitivity) of tumors of the luminal A subtype (primary tumors) | sensitivity (GI-50) of cell lines with high expression of AKR1C1 (NCI 60 cell lines)
1 | COc1cccc2c1C(=O)c1c(O)c3c(c(O)c1C2=O)C[C@@](O)(C(=O)CO)C[C@@H]3O[C@H]1C[C@H](N)[C@@H](O)[C@H](C)O1 [Epirubicin] | particularly sensitive | resistant | 
2 | CC(=O)O[C@H]1C(=O)[C@@]2(C)[C@H]([C@H](OC(=O)c3ccccc3)[C@]3(O)C[C@H](OC(=O)[C@H](O)[C@@H](NC(=O)c4ccccc4)c4ccccc4)C(C)=C1C3(C)C)[C@]1(OC(C)=O)CO[C@@H]1C[C@@H]2O [Paclitaxel] | particularly sensitive | resistant | mainly are resistant
